Source: patent US20020137023A1, “Methods and compositions for targeting compounds to muscle” (Auburn University, priority 1997, published 2002)

Key:
Test in all cases: in vivo phage display selection, frequency of selected clone
[1] = system: cardiac muscle; parameters: species or system dog; conditions: for FREQUENCY (of selected phage clone among clones sequenced): 3 in vivo rounds in cardiac muscle, dog
Experimental: (§1) In round one of selection, the phage library is injected intravenously and multiple tissues may be recovered. In subsequent rounds, the phage purified from specific tissues recovered in round one is injected intravenously, and thus, only that tissue is recovered. In rounds 2-4, separate animals are needed for each tissue being examined. After the last round, the phages are plated on a lawn of bacteria and a number of phage plaques are isolated and the DNA sequenced. Of these a certain percentage will represent the dominant selected clone. FIG. 2 provides a scheme for selection of tissue specific phage.
(§2) In the Table, “Four rounds of selection . . . ,” means that in round 1, the phage library was injected intravenously, and a specific tissue was recovered. In round 1, multiple tissues are recovered from one animal (skeletal muscle, cardiac muscle, etc.). In any subsequent round, the phage purified from a specific tissue is injected intravenously, and only that tissue is recovered. Thus, in rounds 2-4, separate animals are needed for each tissue being examined. After the last round, the phage are plated on a lawn of bacteria and a number of phage plaques are isolated and the DNA sequenced. This is represented in the Table by “number of phage clones sequenced.” Of these, a certain percentage will represent the dominant selected clone.
(§3) The experiments disclosed herein, represent the first in vivo selection in any species other than mouse. Generally, phage was left to circulate for one hour.

[2] = system: skeletal muscle
Experimental: as §1, §2, §3

[3] = system: neuro muscular tissue; conditions: 4 in vivo rounds in neural muscular tissue; mouse
Experimental: as §1, §2, §3

[4] = system: murine muscle; parameters: species or system mouse; conditions: four rounds in vivo
Experimental: as §1
In the Table, “Four rounds of selection . . . ,” means that in round 1, the phage library was injected intravenously, and a specific tissue was recovered. In round 1, multiple tissues are recovered from one animal (skeletal muscle, cardiac muscle, etc.). In any subsequent round, the phage purified from a specific tissue is injected intravenously, and only that tissue is recovered. Thus, in rounds 2-4, separate animals are needed for each tissue being examined. After the last round, the phage are plated on a lawn of bacteria and a number of phage plaques are isolated and the DNA sequenced. This is represented in the Table by “number of phage clones sequenced.” Of these, a certain percentage will represent the dominant selected clone. […]

[5] = system: cardiac muscle; conditions: mouse
Experimental: as §1, §2, §3

[6] = 4 in vivo rounds in skeletal muscle, mouse
[7] = 4 in vivo rounds in cardiac muscle

**Q.** “APVHRPL (Phage display library peptides) [peptide selected via two rounds in vivo, in canine cardiac muscle]” was tested. Which “fraction in which the selected clone was found” value ([1]; two rounds in vivo, in canine cardiac muscle) did it give?
**A.** found in the washed tissue fraction

**Q.** Which “FREQUENCY (of selected phage clone among clones sequenced)” value ([2]; 3 in vitro rounds on C2C12 myotubes followed by 2 in vivo rounds on skeletal muscle, mouse) does the source give for “ASSLNIA (Phage display library peptides) [Ala-Ser-Ser-Leu-Asn-Ile-Ala]” here?
**A.** 40%

**Q.** “CGHHPVYAC (Phage display library peptides) [Cys-Gly-His-His-Pro-Val-Tyr-Ala-Cys]” was tested. Which “FREQUENCY (of selected phage clone among clones sequenced)” value ([2]; tissue skeletal muscle, dog) did it give?
**A.** 100%

**Q.** And the “FREQUENCY (of selected phage clone among clones sequenced)” value [1]?
**A.** 20%

**Q.** With “GETRAPL (Phage display library peptides) [Gly-Glu-Thr-Arg-Ala-Pro-Leu]” as the substance, how does the “FREQUENCY (of selected phage clone among clones sequenced)” value [3] read?
**A.** 12%

**Q.** And the “FREQUENCY (of selected phage clone among clones sequenced)” value [2, 6]?
**A.** 37%

**Q.** With “HAIYPRH (Phage display library peptides) [peptide selected via four rounds in vivo, in murine muscle]” as the substance, how does the “frequency of selected clone” value [4] read?
**A.** 4%

**Q.** “HVHTLPT (Phage display library peptides) [His-Val-His-Thr-Leu-Pro-Thr]” was tested. Which “FREQUENCY (of selected phage clone among clones sequenced)” value [5, 7] did it give?
**A.** 11%

**Q.** With “KAPLTPV (Phage display library peptides) [peptide selected by 3 in vivo phage rounds in dog cardiac muscle]” as the substance, how does the “FREQUENCY (of selected phage clone among clones sequenced)” value [1] read?
**A.** 8%

**Q.** How did the “FREQUENCY (of selected phage clone among clones sequenced)” value [5, 7] turn out when “MHHTRFY (Phage display library peptides) [Met-His-His-Thr-Arg-Phe-Tyr]” was run?
**A.** 8%

**Q.** With “QWHGPLH (Phage display library peptides) [Gln-Trp-His-Gly-Pro-Leu-His]” as the substance, how does the “FREQUENCY (of selected phage clone among clones sequenced)” value ([5]; 3 in vivo rounds in cardiac muscle) read?
**A.** 20%

**Q.** With “SGTLFAN (Phage display library peptides) [peptide selected by 3 in vivo phage rounds in dog cardiac muscle]” as the substance, how does the “FREQUENCY (of selected phage clone among clones sequenced)” value [1] read?
**A.** 28%

**Q.** How did the “FREQUENCY (of selected phage clone among clones sequenced)” value ([2]; 2 in vitro on C2C12 myotubes followed by 2 in vivo rounds on skeletal muscle, mouse + dog) turn out when “WDANGKT (Phage display library peptides) [Trp-Asp-Ala-Asn-Gly-Lys-Thr]” was run?
**A.** 10%

**Q.** What about the “FREQUENCY (of selected phage clone among clones sequenced)” value [2, 6] of the same substance?
**A.** 19%
